# Measured values taken from patent US20220009920A1 (GB005, Inc., priority 2020, published 2022).
# Key:
# Assay in all cases: Large panel kinase profiling
# Assay type in all cases: biochemical
# Conditions in all cases: 1 μM test article, 1 mM ATP
# STK17A/DRAK1 = molecular target: T1, STK17A/DRAK1 (Homo sapiens, UniProt Q9UEE5)
# T1 construct: AssayQuant Technologies, Inc. (contract assay)
# T1 sequence (Q9UEE5 1-414): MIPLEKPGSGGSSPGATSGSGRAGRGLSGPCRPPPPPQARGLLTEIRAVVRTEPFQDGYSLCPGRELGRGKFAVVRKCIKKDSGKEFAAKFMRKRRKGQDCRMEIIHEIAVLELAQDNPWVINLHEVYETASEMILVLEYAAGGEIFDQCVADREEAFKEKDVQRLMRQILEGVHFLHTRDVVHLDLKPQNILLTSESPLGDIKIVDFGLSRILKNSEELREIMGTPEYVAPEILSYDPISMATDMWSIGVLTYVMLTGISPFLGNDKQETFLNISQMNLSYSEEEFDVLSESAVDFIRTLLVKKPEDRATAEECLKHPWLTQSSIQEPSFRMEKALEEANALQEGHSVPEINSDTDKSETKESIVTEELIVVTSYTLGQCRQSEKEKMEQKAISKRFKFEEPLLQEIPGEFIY
# Procedure, shortened: (§1)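 With ATP fixed at 1 mM, each kinase was exposed to 1 μM compound in a PhosphoSens CSox-Sensor reaction. Sealed plates were incubated at 30° C. and read in kinetic mode.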
# STK33 = molecular target: T2, STK33 (Homo sapiens, UniProt Q9BYT3)
# T2 construct: AssayQuant Technologies, Inc. (contract assay)
# T2 sequence (Q9BYT3 whole entry, species assumed): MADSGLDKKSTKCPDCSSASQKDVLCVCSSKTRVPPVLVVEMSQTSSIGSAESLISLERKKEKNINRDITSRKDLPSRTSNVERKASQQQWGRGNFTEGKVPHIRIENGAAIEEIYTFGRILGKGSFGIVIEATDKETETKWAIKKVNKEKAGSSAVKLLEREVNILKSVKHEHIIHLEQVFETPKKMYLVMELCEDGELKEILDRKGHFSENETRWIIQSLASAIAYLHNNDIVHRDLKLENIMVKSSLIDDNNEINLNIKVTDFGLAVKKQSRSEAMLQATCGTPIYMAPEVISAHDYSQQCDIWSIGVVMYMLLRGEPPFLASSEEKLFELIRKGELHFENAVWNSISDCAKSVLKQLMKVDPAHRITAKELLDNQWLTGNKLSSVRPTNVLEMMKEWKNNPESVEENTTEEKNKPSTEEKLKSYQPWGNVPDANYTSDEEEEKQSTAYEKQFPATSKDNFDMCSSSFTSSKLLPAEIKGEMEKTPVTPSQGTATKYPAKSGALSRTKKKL
# Procedure, shortened: as §1
# MASTL = molecular target: T3, MASTL (Homo sapiens, UniProt Q96GX5)
# T3 construct: AssayQuant Technologies, Inc. (assay service)
# T3 sequence (Q96GX5 1-879): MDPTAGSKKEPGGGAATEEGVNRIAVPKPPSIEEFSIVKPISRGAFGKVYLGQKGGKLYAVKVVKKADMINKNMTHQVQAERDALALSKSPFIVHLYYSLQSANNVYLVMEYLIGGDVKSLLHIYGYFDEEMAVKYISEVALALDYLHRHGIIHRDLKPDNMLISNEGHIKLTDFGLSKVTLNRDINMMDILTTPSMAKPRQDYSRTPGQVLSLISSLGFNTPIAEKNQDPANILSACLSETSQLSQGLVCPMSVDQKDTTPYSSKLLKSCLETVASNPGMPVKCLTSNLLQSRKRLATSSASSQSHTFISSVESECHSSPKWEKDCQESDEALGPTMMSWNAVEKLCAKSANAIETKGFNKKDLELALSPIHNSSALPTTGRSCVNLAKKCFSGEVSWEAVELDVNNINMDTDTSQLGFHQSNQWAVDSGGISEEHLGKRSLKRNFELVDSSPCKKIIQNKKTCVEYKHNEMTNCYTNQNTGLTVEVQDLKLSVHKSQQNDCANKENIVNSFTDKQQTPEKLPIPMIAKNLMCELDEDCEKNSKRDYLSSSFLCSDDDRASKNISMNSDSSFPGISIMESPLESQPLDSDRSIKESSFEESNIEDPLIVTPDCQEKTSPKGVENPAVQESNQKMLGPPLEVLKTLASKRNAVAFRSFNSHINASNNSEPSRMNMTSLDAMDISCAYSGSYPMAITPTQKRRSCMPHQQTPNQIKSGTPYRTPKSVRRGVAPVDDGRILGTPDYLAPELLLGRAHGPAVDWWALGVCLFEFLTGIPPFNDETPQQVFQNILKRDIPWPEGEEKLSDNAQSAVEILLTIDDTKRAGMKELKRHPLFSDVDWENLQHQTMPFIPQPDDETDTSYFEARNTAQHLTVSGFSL
# Procedure, shortened: as §1
# MAPK13/P38D = molecular target: T4, MAPK13/P38D (Homo sapiens, UniProt O15264)
# T4 construct: AssayQuant Technologies, Inc. (service provider)
# T4 sequence (O15264 1-365): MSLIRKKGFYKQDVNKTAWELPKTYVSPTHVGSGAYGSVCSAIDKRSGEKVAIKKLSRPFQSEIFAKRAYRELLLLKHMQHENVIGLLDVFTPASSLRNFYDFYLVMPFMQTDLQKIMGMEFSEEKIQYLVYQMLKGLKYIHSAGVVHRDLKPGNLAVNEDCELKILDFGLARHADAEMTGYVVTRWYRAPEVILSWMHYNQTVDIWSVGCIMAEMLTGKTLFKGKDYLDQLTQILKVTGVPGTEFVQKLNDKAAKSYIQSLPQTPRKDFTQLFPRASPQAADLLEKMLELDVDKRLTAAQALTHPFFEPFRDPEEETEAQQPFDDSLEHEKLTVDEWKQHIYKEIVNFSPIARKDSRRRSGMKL
# Procedure, shortened: as §1
# KIT = KIT (Homo sapiens, UniProt P10721)
# Chain of KIT (P10721 26-976, species assumed): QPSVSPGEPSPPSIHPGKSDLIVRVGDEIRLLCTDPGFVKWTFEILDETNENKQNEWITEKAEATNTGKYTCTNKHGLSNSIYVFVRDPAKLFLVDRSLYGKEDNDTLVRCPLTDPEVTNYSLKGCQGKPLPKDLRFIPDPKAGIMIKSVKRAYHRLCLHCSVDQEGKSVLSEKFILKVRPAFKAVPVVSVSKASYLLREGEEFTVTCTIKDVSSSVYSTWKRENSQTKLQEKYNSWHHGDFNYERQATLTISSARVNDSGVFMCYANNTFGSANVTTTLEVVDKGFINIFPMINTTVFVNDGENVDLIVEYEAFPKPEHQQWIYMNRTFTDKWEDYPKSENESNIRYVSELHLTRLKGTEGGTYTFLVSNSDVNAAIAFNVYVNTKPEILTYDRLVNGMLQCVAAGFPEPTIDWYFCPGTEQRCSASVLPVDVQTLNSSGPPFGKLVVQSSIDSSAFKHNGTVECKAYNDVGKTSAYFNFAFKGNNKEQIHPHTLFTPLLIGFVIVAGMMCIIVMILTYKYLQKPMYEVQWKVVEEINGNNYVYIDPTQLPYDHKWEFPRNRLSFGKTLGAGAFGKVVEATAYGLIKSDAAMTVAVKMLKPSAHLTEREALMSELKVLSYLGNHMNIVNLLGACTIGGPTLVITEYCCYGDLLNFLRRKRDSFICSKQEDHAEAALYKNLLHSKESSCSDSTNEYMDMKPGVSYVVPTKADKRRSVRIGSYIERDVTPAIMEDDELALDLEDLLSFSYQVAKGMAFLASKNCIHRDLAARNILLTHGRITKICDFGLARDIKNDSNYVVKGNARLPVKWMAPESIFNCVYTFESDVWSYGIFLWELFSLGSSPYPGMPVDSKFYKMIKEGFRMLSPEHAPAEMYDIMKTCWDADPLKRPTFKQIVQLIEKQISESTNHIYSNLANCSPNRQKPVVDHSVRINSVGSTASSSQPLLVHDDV
# Procedure, shortened: as §1
# CDK7 = molecular target: T5, CDK7 (Homo sapiens, UniProt P50613)
# T5 construct: AssayQuant Technologies, Inc. (ran the panel)
# T5 sequence (P50613 whole entry, species assumed): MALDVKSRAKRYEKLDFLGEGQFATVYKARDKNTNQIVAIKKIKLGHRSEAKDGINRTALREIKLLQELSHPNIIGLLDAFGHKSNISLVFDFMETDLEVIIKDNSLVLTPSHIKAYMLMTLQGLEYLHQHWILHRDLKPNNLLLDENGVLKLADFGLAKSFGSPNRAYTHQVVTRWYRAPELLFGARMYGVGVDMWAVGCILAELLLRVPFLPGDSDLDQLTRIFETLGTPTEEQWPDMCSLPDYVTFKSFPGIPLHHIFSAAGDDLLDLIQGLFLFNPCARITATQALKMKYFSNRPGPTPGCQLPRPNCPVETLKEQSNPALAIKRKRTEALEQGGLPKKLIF
# T5 sequence (P51946 whole entry partner, species assumed): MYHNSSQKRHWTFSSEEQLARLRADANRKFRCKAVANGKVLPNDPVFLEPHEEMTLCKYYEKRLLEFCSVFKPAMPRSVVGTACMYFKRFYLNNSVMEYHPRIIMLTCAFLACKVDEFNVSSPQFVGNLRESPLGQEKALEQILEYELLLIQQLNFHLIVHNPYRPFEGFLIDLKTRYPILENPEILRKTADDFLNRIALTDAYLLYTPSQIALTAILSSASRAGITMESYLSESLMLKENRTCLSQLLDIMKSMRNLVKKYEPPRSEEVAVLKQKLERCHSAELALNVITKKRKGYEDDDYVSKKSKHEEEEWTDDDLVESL
# T5 sequence (P51948 whole entry partner, species assumed): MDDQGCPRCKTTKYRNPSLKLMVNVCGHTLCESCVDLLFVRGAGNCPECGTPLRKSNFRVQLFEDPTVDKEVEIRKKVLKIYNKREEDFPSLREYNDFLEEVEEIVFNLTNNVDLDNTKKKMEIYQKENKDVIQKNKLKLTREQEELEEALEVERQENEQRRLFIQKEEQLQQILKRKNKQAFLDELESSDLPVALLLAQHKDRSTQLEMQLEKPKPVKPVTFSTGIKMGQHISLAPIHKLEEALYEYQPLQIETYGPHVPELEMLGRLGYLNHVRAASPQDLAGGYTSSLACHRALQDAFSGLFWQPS
# Procedure, shortened: as §1
# SGK3 = molecular target: T6, SGK3 (Homo sapiens, UniProt Q96BR1)
# T6 construct: AssayQuant Technologies, Inc. (contract assay)
# T6 sequence (Q96BR1 1-496): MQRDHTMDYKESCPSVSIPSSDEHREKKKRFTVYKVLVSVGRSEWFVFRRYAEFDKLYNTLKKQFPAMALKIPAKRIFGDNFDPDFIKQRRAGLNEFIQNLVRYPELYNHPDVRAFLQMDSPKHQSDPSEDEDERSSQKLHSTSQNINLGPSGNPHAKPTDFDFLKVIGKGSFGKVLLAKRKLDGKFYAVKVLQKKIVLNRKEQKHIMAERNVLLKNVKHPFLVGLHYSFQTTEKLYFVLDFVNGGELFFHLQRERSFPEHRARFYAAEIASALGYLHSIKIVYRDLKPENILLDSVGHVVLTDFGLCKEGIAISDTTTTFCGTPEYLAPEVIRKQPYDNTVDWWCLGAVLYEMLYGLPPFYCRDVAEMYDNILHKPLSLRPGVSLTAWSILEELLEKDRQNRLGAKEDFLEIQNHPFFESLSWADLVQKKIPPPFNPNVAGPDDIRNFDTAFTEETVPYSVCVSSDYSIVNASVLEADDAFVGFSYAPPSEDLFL
# Procedure, shortened: as §1
Structure (SMILES),inhibition at 1 µM (STK17A/DRAK1),inhibition at 1 µM (STK33),inhibition at 1 µM (MASTL),inhibition at 1 µM (MAPK13/P38D),inhibition at 1 µM (KIT),inhibition at 1 µM (CDK7),inhibition at 1 µM (SGK3)
"C=CC(=O)N1CCCC(c2c(F)cc(C(N)=O)c3[nH]c4c(c23)CCCCC4)C1 (single isomer, unassigned) [Compound 5-6]",22.4%,-7.9%,2.2%,6.7%,5.5%,-10.1%,-28.1%
"C=CC(=O)N1CCC[C@@H](c2c(F)cc(C(N)=O)c3[nH]c4c(c23)CC2(CC4)CC2)C1 [Compound 6-2, (S)-5-(1-acryloylpiperidin-3-yl)-6-fluoro-1,2,4,9-tetrahydrospiro[carbazole-3,1′-cyclopropane]-8-carboxamide]",-33.9%,-27.1%,-9%,26%,26.9%,-6%,-19.9%
"C=CC(=O)N1CCC[C@@H](c2c(F)cc(C(N)=O)c3[nH]c4c(c23)CCC4)C1 [Compound 10-2, (S)-8-(1-acryloylpiperidin-3-yl)-7-fluoro-1,2,3,4-tetrahydrocyclo-penta[b]indole-5-carboxamide]",-28%,20.5%,-10.2%,9%,20.8%,14.1%,-32.5%
